This is an account of results in patent US9974726B2, “Gentle cleansing compositions with makeup removal properties” (L'OREAL, priority 2016, dated 2018).

This experiment deals with skin of an arm. The experiment in a line: Hydration Test (corneometer). The experiment is classed as in vivo. The conditions noted are these: n=10. How it is done: Each of the compositions in the table below were individually applied to the skin of an arm (n=10) and then removed with a moist cotton pad. A corneometer was used to take initial measurements, and subsequent measurements at 1, 2, and 6 hour time points.

Take `CCCCCCCCCCCCOS(=O)(=O)[O-].[Na+]` [5% sodium lauryl sulfate, sodium lauryl sulfate]: the “corneometer measurement, 1 hours” value (1 hour after application and removal with moist cotton pad, * = statistically significant) is given as 34.2. Also, the “corneometer measurement, 2 hours” value (2 hours after application and removal, * = statistically significant) was 33.5. For the same molecule, for the setting “6 hours after application and removal, * = statistically significant”, the “corneometer measurement, 6 hours” value was 32.4. The “corneometer measurement, 0 hours” value (initial measurement) was found to be 30.7.
